Data as given in PubChem BioAssay AID248 (DTP/NCI, 2004).
“And” between values parts separate entries of the source, which are not always exact repeats. Identical values can stand only once. Inconclusive results and toxic doses are left out. Rule as the data show it: active = T/C of 150% or more; inactive = T/C below 125%.

Tested on: L1210 leukemia ip in BDF1 mice, survival T/C
Assay: NCI In Vivo Anticancer Drug Screen. Data for tumor model L1210 Leukemia (intraperitoneal) in B6D2F1 (BDF1) mice
Settings: higher = longer survival
Procedure, shortened: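 Transplanted-tumor mice were given test agent; controls received vehicle only. Survival readings from the two groups were divided (treated over control).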

[1] = endpoint: mean survival time, dose: 100.0 mg/kg/injection, schedule: Q01DX009 (ip), vehicle: Klucel (hydroxypropylcellulose) (HPC)
[2] = endpoint: mean survival time, dose: 100.0 mg/kg/injection, schedule: Q04DX003 (ip), vehicle: Klucel (hydroxypropylcellulose) (HPC)
[3] = endpoint: mean survival time, dose: 200.0 mg/kg/injection, schedule: Q01DX009 (ip), vehicle: Klucel (hydroxypropylcellulose) (HPC)
[4] = endpoint: mean survival time, dose: 200.0 mg/kg/injection, schedule: Q04DX003 (ip), vehicle: Klucel (hydroxypropylcellulose) (HPC)
[5] = endpoint: mean survival time, dose: 400.0 mg/kg/injection, schedule: Q01DX009 (ip), vehicle: Klucel (hydroxypropylcellulose) (HPC)
[6] = endpoint: mean survival time, dose: 400.0 mg/kg/injection, schedule: Q04DX003 (ip), vehicle: Klucel (hydroxypropylcellulose) (HPC)
[7] = endpoint: mean survival time, dose: 100.0 mg/kg/injection, schedule: Q01DX009 (ip), vehicle: saline with Tween-80
[8] = endpoint: mean survival time, dose: 200.0 mg/kg/injection, schedule: Q01DX009 (ip), vehicle: saline with Tween-80
[9] = endpoint: mean survival time, dose: 400.0 mg/kg/injection, schedule: Q01DX009 (ip), vehicle: saline with Tween-80
[10] = endpoint: mean survival time, dose: 100.0 mg/kg/injection, schedule: Q04DX002 (ip), vehicle: saline
[11] = endpoint: mean survival time, dose: 200.0 mg/kg/injection, schedule: Q04DX002 (ip), vehicle: saline
[12] = endpoint: mean survival time, dose: 400.0 mg/kg/injection, schedule: Q04DX002 (ip), vehicle: saline
[13] = endpoint: mean survival time, dose: 100.0 mg/kg/injection, schedule: Q04DX003 (ip), vehicle: saline with Tween-80
[14] = endpoint: mean survival time, dose: 200.0 mg/kg/injection, schedule: Q04DX003 (ip), vehicle: saline with Tween-80
[15] = endpoint: mean survival time, dose: 100.0 mg/kg/injection, schedule: Q01DX001 (ip), vehicle: saline
[16] = endpoint: mean survival time, dose: 200.0 mg/kg/injection, schedule: Q01DX001 (ip), vehicle: saline
[17] = endpoint: mean survival time, dose: 400.0 mg/kg/injection, schedule: Q01DX001 (ip), vehicle: saline
[18] = endpoint: mean survival time, dose: 12.5 mg/kg/injection, schedule: Q04DX003 (ip), vehicle: saline
[19] = endpoint: mean survival time, dose: 25.0 mg/kg/injection, schedule: Q04DX003 (ip), vehicle: saline
[20] = endpoint: mean survival time, dose: 50.0 mg/kg/injection, schedule: Q04DX003 (ip), vehicle: saline

Measured: T/C

O=C(CS)CS
inactive: endpoint: mean survival time, dose: 6.25 mg/kg/injection, schedule: Q01DX009 (ip), vehicle: water 102 % of control | endpoint: mean survival time, dose: 12.5 mg/kg/injection, schedule: Q01DX009 (ip), vehicle: water 114 % of control | endpoint: mean survival time, dose: 25.0 mg/kg/injection, schedule: Q01DX009 (ip), vehicle: water 98 % of control and 105 % of control | endpoint: mean survival time, dose: 25.0 mg/kg/injection, schedule: Q04DX003 (ip), vehicle: water 102 % of control | endpoint: mean survival time, dose: 50.0 mg/kg/injection, schedule: Q01DX009 (ip), vehicle: water 97 % of control and 103 % of control | endpoint: mean survival time, dose: 50.0 mg/kg/injection, schedule: Q04DX003 (ip), vehicle: water 91 % of control | endpoint: mean survival time, dose: 100.0 mg/kg/injection, schedule: Q04DX003 (ip), vehicle: water 97 % of control

O=C(NC(Cc1ccccc1)C(=O)CBr)OCc1ccccc1 (stereo not given)
inactive: endpoint: mean survival time, dose: 100.0 mg/kg/injection, schedule: Q01DX001 (ip), vehicle: saline with Tween-80 103 % of control

CCOC(=O)c1[nH]c2c(c1CC(CC)[N+](=O)[O-])CCCC2 (stereo not given)
inactive: [1] 96 % of control | [2] 93 % of control | [3] 98 % of control | [4] 93 % of control | [5] 101 % of control | [6] 95 % of control

O=C(OC(c1ccccc1)(C(F)(F)F)C(F)(F)F)c1ccccc1Sc1ccccc1
inactive: [7] 95 % of control | [8] 101 % of control | [9] 98 % of control

Cc1ccc(N=Nc2ccc(C)cc2NC(=O)Nc2cc([N+](=O)[O-])ccc2F)cc1
inactive: [10] 93 % of control | [11] 108 % of control | [12] 90 % of control

CCC(C)C(CN)(CCCCN1CCOCC1)c1cccc2ccccc12 (stereo not given)
inactive: [13] 98 % of control | [14] 93 % of control

CN(C)CCCCC(C#N)(c1ccccc1)c1ccccc1
inactive: endpoint: mean survival time, dose: 15.0 mg/kg/injection, schedule: Q01DX001 (ip), vehicle: saline 88 % of control | endpoint: mean survival time, dose: 30.0 mg/kg/injection, schedule: Q01DX001 (ip), vehicle: saline 92 % of control

CC(=O)CCCCC(C)=O
inactive: [15] 98 % of control | [16] 101 % of control | [17] 104 % of control

O=C(Nc1ccc(Nc2ccncc2)cc1)c1ccc(Nc2ccnc3ccc([N+](=O)[O-])cc23)cc1
inactive: [1] 92 % of control | [2] 101 % of control | [3] 109 % of control | [4] 97 % of control | [5] 95 % of control | [6] 108 % of control

O=C(CNC(=O)c1ccc(Cl)cc1Cl)N/N=C/c1cccc([N+](=O)[O-])c1
inactive: endpoint: mean survival time, dose: 12.5 mg/kg/injection, schedule: Q01DX009 (ip), vehicle: saline with Tween-80 96 % of control | endpoint: mean survival time, dose: 50.0 mg/kg/injection, schedule: Q01DX009 (ip), vehicle: saline with Tween-80 89 % of control

N#CC1(c2ccc3c(c2)OCO3)C(c2ccc3c(c2)OCO3)CC(O)(c2ccccc2)C1C(=O)c1ccccc1 (stereo not given)
inactive: [7] 96 % of control | [8] 89 % of control | [9] 102 % of control

CC=C1C(C(=O)O)C1C(=O)O (stereo not given)
inactive: endpoint: mean survival time, dose: 25.0 mg/kg/injection, schedule: Q01DX009 (ip), vehicle: Klucel (hydroxypropylcellulose) (HPC) 93 % of control | endpoint: mean survival time, dose: 50.0 mg/kg/injection, schedule: Q01DX009 (ip), vehicle: Klucel (hydroxypropylcellulose) (HPC) 93 % of control | [1] 95 % of control and 96 % of control | [10] 115 % of control | [11] 107 % of control | [12] 113 % of control

OCCN1CCN(CCCN2c3ccccc3CCc3ccccc32)CC1
inactive: [18] 98 % of control | endpoint: mean survival time, dose: 15.62 mg/kg/injection, schedule: Q04DX003 (ip), vehicle: saline 100 % of control | [19] 106 % of control | endpoint: mean survival time, dose: 31.25 mg/kg/injection, schedule: Q04DX003 (ip), vehicle: saline 103 % of control | [20] 104 % of control | endpoint: mean survival time, dose: 62.5 mg/kg/injection, schedule: Q04DX003 (ip), vehicle: saline 105 % of control | endpoint: mean survival time, dose: 100.0 mg/kg/injection, schedule: Q04DX003 (ip), vehicle: saline 104 % of control | endpoint: mean survival time, dose: 125.0 mg/kg/injection, schedule: Q04DX003 (ip), vehicle: saline 92 % of control

CC1(C)SC2C(NC(=O)C(C(=O)O)c3ccccc3)C(=O)N2C1C(=O)O (stereo not given)
inactive: endpoint: mean survival time, dose: 25.0 mg/kg/injection, schedule: Q01DX009 (ip), vehicle: saline 103 % of control | endpoint: mean survival time, dose: 50.0 mg/kg/injection, schedule: Q01DX001 (ip), vehicle: saline 107 % of control | endpoint: mean survival time, dose: 50.0 mg/kg/injection, schedule: Q01DX009 (ip), vehicle: saline 103 % of control | [15] 95 % of control | endpoint: mean survival time, dose: 100.0 mg/kg/injection, schedule: Q01DX009 (ip), vehicle: saline 100 % of control and 101 % of control | [16] 102 % of control | endpoint: mean survival time, dose: 200.0 mg/kg/injection, schedule: Q01DX009 (ip), vehicle: saline 105 % of control | [17] 101 % of control | endpoint: mean survival time, dose: 400.0 mg/kg/injection, schedule: Q01DX009 (ip), vehicle: saline 100 % of control

O=C(Nc1ccc(F)cc1)OCC1CCCO1 (stereo not given)
inactive: endpoint: mean survival time, dose: 100.0 mg/kg/injection, schedule: Q01DX001 (ip), vehicle: carboxymethylcellulose (CMC) 100 % of control | endpoint: mean survival time, dose: 100.0 mg/kg/injection, schedule: Q01DX009 (ip), vehicle: carboxymethylcellulose (CMC) 102 % of control and 103 % of control | endpoint: mean survival time, dose: 100.0 mg/kg/injection, schedule: Q04DX002 (ip), vehicle: carboxymethylcellulose (CMC) 100 % of control and 102 % of control | endpoint: mean survival time, dose: 200.0 mg/kg/injection, schedule: Q01DX001 (ip), vehicle: carboxymethylcellulose (CMC) 103 % of control | endpoint: mean survival time, dose: 200.0 mg/kg/injection, schedule: Q01DX009 (ip), vehicle: carboxymethylcellulose (CMC) 92 % of control and 97 % of control | endpoint: mean survival time, dose: 200.0 mg/kg/injection, schedule: Q04DX002 (ip), vehicle: carboxymethylcellulose (CMC) 95 % of control and 98 % of control | endpoint: mean survival time, dose: 400.0 mg/kg/injection, schedule: Q01DX001 (ip), vehicle: carboxymethylcellulose (CMC) 92 % of control | endpoint: mean survival time, dose: 400.0 mg/kg/injection, schedule: Q01DX009 (ip), vehicle: carboxymethylcellulose (CMC) 96 % of control and 102 % of control | endpoint: mean survival time, dose: 400.0 mg/kg/injection, schedule: Q04DX002 (ip), vehicle: carboxymethylcellulose (CMC) 92 % of control and 96 % of control

C/C(CCCCl)=N/N=C(N)N
inactive: [18] 100 % of control | endpoint: mean survival time, dose: 18.75 mg/kg/injection, schedule: Q01DX009 (ip), vehicle: saline with Tween-80 96 % of control | [19] 110 % of control | endpoint: mean survival time, dose: 37.5 mg/kg/injection, schedule: Q01DX009 (ip), vehicle: saline with Tween-80 90 % of control | [20] 103 % of control | endpoint: mean survival time, dose: 75.0 mg/kg/injection, schedule: Q01DX009 (ip), vehicle: saline with Tween-80 94 % of control | endpoint: mean survival time, dose: 75.0 mg/kg/injection, schedule: Q04DX003 (ip), vehicle: acetone 95 % of control | endpoint: mean survival time, dose: 110.0 mg/kg/injection, schedule: Q01DX009 (ip), vehicle: saline with Tween-80 98 % of control

CCOC(=O)c1[nH]c(C)nc1/N=N/N(C)C
inactive: endpoint: median survival time, dose: 25.0 mg/kg/injection, schedule: Q01DX009 (ip), vehicle: Klucel (hydroxypropylcellulose) (HPC) 116 % of control

OCCSSSCCO
inactive: endpoint: mean survival time, dose: 75.0 mg/kg/injection, schedule: Q01DX001 (ip), vehicle: other 105 % of control | endpoint: mean survival time, dose: 150.0 mg/kg/injection, schedule: Q01DX001 (ip), vehicle: other 115 % of control

O=C(NC1CCCCC1)OC/C=C\c1ccccc1
inactive: [1] 101 % of control | [2] 101 % of control | [3] 98 % of control | [4] 96 % of control | [5] 109 % of control | [6] 102 % of control

CCCCCCCCNc1ccccc1
inactive: [13] 95 % of control | [14] 106 % of control | endpoint: mean survival time, dose: 400.0 mg/kg/injection, schedule: Q04DX003 (ip), vehicle: saline with Tween-80 117 % of control
